{
  "source": "patent US9365597B2",
  "about": "“Mitochondria-targeted inhibitors of cytochrome c peroxidase for protection from apoptosis” (Brock University, priority 2011, dated 2016)",
  "key": {"cyt c/TLCL": {"molecular_target": "T1, cyt c/TLCL (Equus caballus, UniProt P00004)", "T1 construct": "purchased Sigma (St. Louis, Mo.)", "T1 sequence (P00004 2-105 limits assumed)": "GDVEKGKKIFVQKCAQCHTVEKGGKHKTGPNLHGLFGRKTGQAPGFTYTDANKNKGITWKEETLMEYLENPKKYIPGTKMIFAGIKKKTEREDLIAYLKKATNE", "experiment": "cyt c/H2O2-induced TLCL (tetra-linoleoyl-cardiolipin) peroxidation, ESI-MS", "assay_type": "biochemical", "conditions": "for inhibition of cyt c/H2O2-induced oxidation of TLCL: cyt c 4 μM, TLCL 100 μM, H2O2 80 μM, 10 min, 37° C.; for oxidation of TLCL at ratio of cyt c to compound of 1:20: cyt c:compound 1:20", "protocol": "For measurement of TLCL oxidation, cyt c (4 μM) was incubated with TLCL (100 μM) containing liposomes (TLCL/cyt c ratio-20:1) and H2O2 (80 μM) for 10 min at 37° C. The reaction was stopped by catalase (150 units/ml) and CL was extracted using Folch procedure^37. Analysis of (hydroperoxy- and hydroxy-) oxidized phospholipid species was performed as described^30. TLCL and its oxidized molecular species were extracted by the Folch procedure^37 and separated on a normal phase column (Luna 3 μm Silica 100A, 150×2 mm, Phenomenex, Torrance Calif.). […] The ESI probe was operated at a voltage differential of 3.5-5.0 kV in the negative ion mode. Capillary temperature was maintained at 150° C. Using range zoom (200-2000 m/z) in negative ion mode, the centroid spectra were acquired.\nSmall unilamellar liposomes were prepared from dioleoylphosphatidylcholine (DOPC) and TOCL (1:1 ratio) or DOPC and TLCL (4:1 ratio) by sonication in HEPES buffer (20 mM with 100 μM diethylene triamine pentaacetic acid (DTPA) (pH 7.4) 3×60 sec, relaxation time 2 min, 4° C.)."}, "mouse embryonic cells": {"test_system": "mouse embryonic cells", "experiment": "γ-Irradiation induced apoptosis in mouse embryonic cells (PS externalization Annexin V/PI, caspase 3/7, cyt c release)", "assay_type": "cell-based", "conditions": "for necrotic cells (PI-positive, Annexin V-positive) after irradiation and treatment / apoptotic cells (PI-negative, Annexin V-positive) after irradiation and treatment: 10 Gy; for necrotic cells (PI-positive, Annexin V-positive) after irradiation and treatment: irradiated only 12.9%; for apoptotic cells (PI-negative, Annexin V-positive) after irradiation and treatment: irradiated only 28.9%", "protocol": "Mouse embryonic cells were seeded on a 35 mm dish at a cell density of 5×10^4/dish, and allowed to attach overnight. The cells were γ-irradiated at a dose of 10 Gy using a Shepherd model 143-45A irradiator (J.L. Shepherd & Associates, CA). Ten min after irradiation, different concentrations of TPP-ISA or TPP-IOA (2.5 and 5 μM) were added and cells were incubated at 37° C. in 5% CO2 for 48 h. Then, cells were harvested for measuring phosphatidylserine externalization by an Annexin V/PI kit and caspase 3/7 activity using a Caspase-Glo® 3/7 Assay kit. Data are means±S.D., n=3. *p<0.01 vs. irradiated only cells.\nPhosphatidylserine externalization was determined by an Annexin V-FITC apoptosis detection kit (Biovision) according to the manufacturer's instructions.\nCaspase-3/7 activity was measured using a luminescence Caspase-Glo 3/7 assay kit (Promega) according to the manufacturer's instructions.\nCells were collected after 48 h post-irradiation incubation and resuspended in lysis buffer containing 0.05% digitonin for 4 min on ice. Supernatants were collected after centrifugation for 10 min at 10,000 g. Equal amounts of protein were subject to 15% SDS-PAGE, transferred onto a nitrocellulose membrane, and probed with antibodies against cyt c (clone 7H, 8.2; C12, BD Pharmingen) or actin (Novus) (loading control) followed by horseradish peroxidase-coupled detection. The protein band profile was analysed by densitometry using Labworks image acquisition and analysis software (UVP)."}, "[1]": {"experiment": "Compartmentalization of TPP-IOA in mouse embryonic cells and subcellular fractions (HPLC, ESI-MS)", "assay_type": "in vitro ADME", "protocol": "Mitochondrial fractions were isolated by differential centrifugation. Briefly, cells were suspended in mitochondria isolation buffer (pH 7.4; MIB) containing mannitol (210 mM), sucrose (70 mM), HEPES (10 mM), EDTA (1 mM) and protease inhibitor cocktail. Cells were lysed by Dounce homogenization. Unbroken cells, nuclei and debris were removed by 5 min centrifugation at 600×g at 4° C. Mitochondria, obtained by centrifugation at 10,000×g (10 min), were washed once with MIB.\nMouse embryonic cells (2×10^6) were seeded in 100 mm cell culture dishes and let attached overnight. Thereafter, the cells were incubated with TPP-IOA (10 μM) in PBS at 37° C. for 30 min, washed with PBS (2×5 mL), and collected by trypsinization. Mitochondria were isolated as described above. In mitochondria, TPP-IOA was analyzed by HPLC after precipitation of proteins with CH3CN (final concentration, 70%; incubation time, 15 min at 4° C.; centrifugation, 5 min at 10,000×g). TPP-IOA from cytosolic fractions was extracted by following the protocol of Folch et al.^37 and then re-dissolved in a minimal volume of methanol. […] Detection of TPP-IOA was performed with a SPD-M10A photodiode array detector (Shimadzu, Kyoto, Japan) following the specific UV spectrum of the triphenylphosphonium function (λmax=224, 264 and 274 nm; FIG. 4A, Inset). TPP-IOA was eluted as single peak with retention time of 4 min."}},
  "data": [
    {"smiles": "CCCCCCC(C/C=C\\CCCCCCCC(=O)OCCC[P+](c1ccccc1)(c1ccccc1)c1ccccc1)n1ccnc1.[Br-]", "note": "(stereo not drawn) [TPP-IOA]", "values": [
      {"measurement": "inhibition of cyt c/H2O2-induced oxidation of TLCL", "setting": "cyt c/TLCL", "value": "inhibited cyt c/H2O2-induced oxidation of TLCL in a concentration-dependent manner"},
      {"measurement": "oxidation of TLCL at ratio of cyt c to compound of 1:20", "setting": "cyt c/TLCL", "value": "completely blocked"},
      {"measurement": "necrotic cells (PI-positive, Annexin V-positive) after irradiation and treatment", "setting": "mouse embryonic cells", "value": 8.2, "unit": "%"},
      {"measurement": "apoptotic cells (PI-negative, Annexin V-positive) after irradiation and treatment", "setting": "mouse embryonic cells", "value": 14.8, "unit": "%"},
      {"measurement": "decrease in the number of apoptotic cells", "setting": "mouse embryonic cells; versus irradiated only cells", "value": "twofold"},
      {"measurement": "reduction in the number of necrotic cells", "setting": "mouse embryonic cells; versus irradiated only cells", "value": 1.6, "unit": "fold"},
      {"measurement": "concentration of TPP-IOA in mitochondria", "setting": "[1]; assuming mitochondria are ~15-25% of cell volume", "value": "~5", "unit": "mM"},
      {"measurement": "subcellular distribution of TPP-IOA", "setting": "[1]; mouse embryonic cells, 10 μM, 30 min", "value": "most of the TPP-IOA was present in mitochondria"}
    ]},
    {"smiles": "CCCCCCC(CCCCCCCCCCC(=O)OCCC[P+](c1ccccc1)(c1ccccc1)c1ccccc1)n1ccnc1.[Br-]", "note": "(stereo not drawn) [TPP-ISA]", "values": [
      {"measurement": "inhibition of cyt c/H2O2-induced oxidation of TLCL", "setting": "cyt c/TLCL", "value": "inhibited cyt c/H2O2-induced oxidation of TLCL in a concentration-dependent manner"},
      {"measurement": "oxidation of TLCL at ratio of cyt c to compound of 1:20", "setting": "cyt c/TLCL", "value": "completely blocked"},
      {"measurement": "necrotic cells (PI-positive, Annexin V-positive) after irradiation and treatment", "setting": "mouse embryonic cells", "value": 7.8, "unit": "%"},
      {"measurement": "apoptotic cells (PI-negative, Annexin V-positive) after irradiation and treatment", "setting": "mouse embryonic cells", "value": 13.9, "unit": "%"}
    ]}
  ]
}
